# Entries after “also recorded” stand apart in the source; their conditions may differ. Structures can show the parent of a compound that is named as a salt. Where two headings read alike, the source gives them in different places.
# Key:
# human TIMP-3 = biological target: T1, human TIMP-3 (Homo sapiens, UniProt P35625); assay: Solid-phase binding of TIMP-3 to immobilized suramin or analogs (ELISA); details: TIMP-3 0.4–50 nM; for EC50: plates coated with 10 µg/ml compound, one-site specific binding model, mean ± S.E., n = 3; for Kd: solid-phase binding assay, plates coated 10 µg/ml, read-out: KD value for TIMP-3 binding to immobilized compound
# T1 construct: made in house; host or cells: human embryonic kidney 293 cells
# T1 sequence (P35625 24-211): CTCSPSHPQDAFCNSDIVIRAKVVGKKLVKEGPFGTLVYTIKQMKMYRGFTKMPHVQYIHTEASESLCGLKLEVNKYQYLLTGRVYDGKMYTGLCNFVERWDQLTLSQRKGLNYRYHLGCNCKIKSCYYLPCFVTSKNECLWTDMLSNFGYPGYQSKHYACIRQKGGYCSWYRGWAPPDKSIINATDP
# Method: Glycosaminoglycan-binding ELISA plates (BD Life Sciences, Swindon, UK) were coated with suramin or its analogs (10 µg/ml in Tris-buffered saline, 18 hours, 25°C) ([Mahoney et al., 2004]) and wells were blocked with 0.2% gelatin in PBS (1 hour, 37°C). Wells were washed in PBS containing 0.1% Tween 20 after this and every subsequent step. Purified FLAG-tagged human TIMP-3 (0.4–50 nM) in blocking solution was applied to wells (3 hours, 37°C), and binding was detected with anti-FLAG M2 primary antibody and anti-mouse horseradish peroxidase–conjugated secondary antibody. 3,3′,5,5′-Tetramethylbenzidine (Becton Dickinson, Swindon, UK) substrate was added, the reaction was stopped when appropriate by adding 2 N H2SO4, and absorbance at 450 nm was measured using a FLUOstar Omega microplate reader (BMG Labtech, Aylesbury, Buckinghamshire, UK). Data (mean ± S.E., n = 3 technical repeats) were analyzed using Prism 7.0b software (GraphPad Software, La Jolla, CA) and EC50 values determined using a one-site specific binding model. Flat planar dimensions of suramin analogs were estimated using ICM-Pro software (Molsoft LLC, San Diego, CA).
# [1] = system: HTB94 chondrosarcoma cells; assay: Accumulation of endogenous TIMP-3 in medium of HTB94 cells; assay type: cell-based; details: 200 µg/ml compound, 36 hours, immunoblotting
# Method: Cells (HTB94 chondrosarcoma cells, primary porcine chondrocytes, or human osteoarthritic chondrocytes) were plated overnight (6 × 10^5 cells per well of a 12-well plate) in DMEM containing 10% FCS and washed three times in serum-free DMEM.
# Media were harvested, precipitated with trichloroacetic acid, and analyzed by immunoblotting using a rabbit anti–TIMP-3 polyclonal antibody (AB6000; Millipore, Hertfordshire, UK) and an alkaline phosphatase–conjugated anti-rabbit secondary antibody (Promega). […]
# [2] = system: purinergic signaling in chondrocytes; set-up: method as in Varani et al., 2008; details: compared with suramin; ref Varani et al., 2008; cited from earlier work
# [3] = system: porcine cartilage explants; assay: Aggrecan release from porcine cartilage explants (DMMB assay, neo-epitope immunoblotting); assay type: cell-based; details: porcine cartilage explants; for IC50: Sus scrofa; for protection of cartilage (release of aggrecan fragments) compared with suramin: 200 µg/ml compound
# Method: The effects of suramin on cartilage degradation were assessed using porcine or human cartilage explants. Explants were rested for 48 hours after dissection and were washed with serum-free DMEM. […]
# Aggrecan degradation was analyzed by quantifying aggrecan fragments released into the conditioned media using the dimethylmethylene blue (DMMB) dye-binding assay ([Farndale et al., 1986]) (mean ± S.D., n = 3) and by immunoblotting with neo-epitope antibodies that recognize ADAMTS-cleaved but not intact aggrecan. For immunoblotting, conditioned media were deglycosylated by adding an equal volume of 200 mM sodium acetate and 50 mM Tris/HCl, pH 6.8, containing chondroitinase and β-endoglycosidase (0.05 U each; 18 hours, 37°C; Sigma-Aldrich). Aggrecan fragments were precipitated by adding five volumes of ice-cold acetone (18 hours, −20°C). After centrifugation (13,000 rpm, 10 minutes, 4°C), pellets were resuspended in SDS sample buffer, separated by electrophoresis on a 6% (v/v) polyacrylamide gel, and blotted onto polyvinylidene fluoride. Membranes were blocked with 5% (m/v) BSA in Tris-buffered saline and incubated with either a rabbit antibody that recognizes the AGEG neo-epitope generated by ADAMTS cleavage of the TAQE^1771∼^1772AGEG bond of aggrecan ([Troeberg et al., 2008]) or a mouse antibody that recognizes the ARGSV neo-epitope generated by ADAMTS cleavage of the NITEGE^373∼^374ARGSV bond ([Hughes et al., 1995]).
# [4] = retinoic acid 1 µM, 48 hours, DMMB assay
SMILES,EC50 (human TIMP-3) [nM],"TIMP-3 accumulation in the medium relative to suramin, defined as 100% [1]","protection of cartilage (release of aggrecan fragments) compared with suramin [3, 4]",further results
"O=C(Nc1cccc(C(=O)Nc2ccc(S(=O)(=O)O)c3cc(S(=O)(=O)O)cc(S(=O)(=O)O)c23)c1)Nc1cccc(C(=O)Nc2ccc(S(=O)(=O)O)c3cc(S(=O)(=O)O)cc(S(=O)(=O)O)c23)c1 [NF023, 8,8′-[carbonylbis(imino-3,1-phenylenecarbonylimino)]bis-1,3,5-naphthalene-trisulphonic acid, hexasodium salt]",26.5 ± 7.5,–,–,–
"O=C(Nc1cc(C(=O)Nc2ccc(S(=O)(=O)O)cc2)cc(C(=O)Nc2ccc(S(=O)(=O)O)cc2)c1)Nc1cc(C(=O)Nc2ccc(S(=O)(=O)O)cc2)cc(C(=O)Nc2ccc(S(=O)(=O)O)cc2)c1 [NF110, 4,4′,4′′,4′′′-[carbonylbis[imino-5,1,3-benzenetriylbis(carbonylimino)]]tetrakisbenzenesulfonic acid tetrasodium salt]",6.88 ± 0.96,–,–,–
"O=C(Nc1cccc(C(=O)Nc2cc(C(=O)Nc3ccc(S(=O)(=O)O)c4cc(S(=O)(=O)O)cc(S(=O)(=O)O)c34)ccc2F)c1)Nc1cccc(C(=O)Nc2cc(C(=O)Nc3ccc(S(=O)(=O)O)c4cc(S(=O)(=O)O)cc(S(=O)(=O)O)c34)ccc2F)c1 [NF157, 8,8′-[carbonylbis[imino-3,1-phenylenecarbonylimino(4-fluoro-3,1-phenylene)carbonylimino]]bis-1,3,5-naphthalenetrisulfonic acid hexasodium salt]",1.55 ± 0.11,–,–,Kd (human TIMP-3): 1.5 ± 0.11 nM
"O=C(Nc1ccc(C(=O)Nc2ccc(C(=O)Nc3ccc(S(=O)(=O)O)c4cc(S(=O)(=O)O)cc(S(=O)(=O)O)c34)cc2)cc1)Nc1ccc(C(=O)Nc2ccc(C(=O)Nc3ccc(S(=O)(=O)O)c4cc(S(=O)(=O)O)cc(S(=O)(=O)O)c34)cc2)cc1 [NF279, 8,8′-[carbonylbis(imino-4,1-phenylenecarbonylimino-4,1-phenylenecarbonylimino)]bis-1,3,5-naphthalenetrisulfonic acid hexasodium salt]",0.85 ± 0.09,233% ± 73%,markedly improved activity,"Kd (human TIMP-3): 0.85 ± 0.09 nM; inhibition of purinergic signaling in chondrocytes [2]: less effective than suramin; IC50 ([3]; 48 h, retinoic acid 1 µM, 48 hours, DMMB assay, read-out: IC50 for inhibition of aggrecan release): 15.6 ± 10 µg/mL; IC50 ([3]; µg/ml value given in molar units, read-out: IC50 for chondroprotective activity): 11600 nM; improvement of IC50 value relative to suramin [3]: 6 fold; IC50 for inhibition of aggrecan release [3, 4]: 15 µg/mL"
"Cc1ccc(C(=O)Nc2cc(S(=O)(=O)[O-])cc3ccc(S(=O)(=O)[O-])cc23)cc1NC(=O)Nc1cc(C(=O)Nc2cc(S(=O)(=O)[O-])cc3ccc(S(=O)(=O)[O-])cc23)ccc1C.[Na+].[Na+].[Na+].[Na+] [NF340, 4,4′-(carbonylbis(imino-3,1-(4-methyl-phenylene)carbonylimino))bis(naphthalene-2,6-disulfonic acid) tetrasodium salt]",> 100,minimal efficacy; also recorded: less effective,less effective,–
"O=C(Nc1cc(C(=O)Nc2ccc(S(=O)(=O)O)cc2S(=O)(=O)O)cc(C(=O)Nc2ccc(S(=O)(=O)O)cc2S(=O)(=O)O)c1)Nc1cc(C(=O)Nc2ccc(S(=O)(=O)O)cc2S(=O)(=O)O)cc(C(=O)Nc2ccc(S(=O)(=O)O)cc2S(=O)(=O)O)c1 [NF449, 4,4′,4′′,4′′′-[carbonylbis(imino-5,1,3-benzenetriyl-bis(carbonylimino))]tetrakis-1,3-benzenedisulfonic acid, octasodium salt]",4.66 ± 0.69,–,–,–
"Cc1ccc(C(=O)Nc2ccc(CP(=O)([O-])O)cc2CP(=O)([O-])O)cc1NC(=O)c1cccc(NC(=O)Nc2cccc(C(=O)Nc3cc(C(=O)Nc4ccc(CP(=O)([O-])O)cc4CP(=O)([O-])O)ccc3C)c2)c1.[Na+].[Na+].[Na+].[Na+] [NF546, 4,4′-(carbonylbis(imino-3,1-phenylene-carbonylimino-3,1-(4-methyl-phenylene)carbonylimino))-bis(1,3-xylene-α,α′-diphosphonic acid tetrasodium salt]",> 100,–,–,–
Cc1ccc(C(=O)Nc2ccc(CP(=O)([O-])O)cc2CP(=O)([O-])O)cc1NC(=O)c1cccc(NC(=O)Nc2cccc(C(=O)Nc3cc(C(=O)Nc4ccc(CP(=O)([O-])O)cc4CP(=O)([O-])O)ccc3C)c2)c1.[Na+].[Na+].[Na+].[Na+] [NF546],–,minimal efficacy; also recorded: less effective,less effective,–

# Reference: PMC5588548, “Suramin Inhibits Osteoarthritic Cartilage Degradation by Increasing Extracellular Levels of Chondroprotective Tissue Inhibitor of Metalloproteinases 3” (Molecular Pharmacology, 2017)
